Patent US6130250A, “Veterinary use of a pleuromutilin derivative” (priority 1996, dated 2000)
Structures can show the parent of a compound that is named as a salt. Where two headings read alike, the source gives them in different places.

Columns and labels:
Mycoplasma gallisepticum = assay: Challenge study, prevention of Mycoplasma gallisepticum infection; assay type: in vivo, male broiler chickens; conditions: for prevention of clinical signs and mortality: tiamulin three doses
Procedure: Groups of male broiler chickens are infected with a virulent strain of Mycoplasma gallisepticum (MG) and each group medicated respectively with one of the following: valnemulin (concentrations of 0.00312, 0.00625, 0.0125 and 0.025%), tiamulin (0.00625, 0.0125 and 0.025%), and tylosin (0.05%). Infection is effected on day 2 by injection of 0.1 ml of Mycoplasma gallisepticum culture containing approximately 10^6 cfu of viable organisms into each lung (Jordan, F. T. W., The Veterinary Record 127 [1990] 502) and medication is commenced within an hour of infection and continued for three consecutive days. There is also an infected untreated group and an uninfected group.

Mycoplasma hyosynoviae = assay: MIC assay, 7 field isolates of Mycoplasma hyosynoviae; assay type: cell-based; conditions: for MIC: Mycoplasma, 7 field isolates
Procedure: Tissue samples are obtained from the lungs of pigs from various enzootic pneumonia of pigs (EPP)--affected herds. Samples are shipped on dry ice for culture. Four isolates from lung samples initially isolated for recovery of Mycoplasma hyopneumoniae were reisolated for Mycoplasma hyosynoviae after it had been noted from the lung samples submitted (re-stored at -70° C.), during culture for M. hyopneumoniae, that some samples yielded luxuriant growth of colonies having the typical morphology of Mycoplasma hyosynoviae. Three further isolates were recovered from other lung samples provided. All isolates were serologically identified by disc growth inhibition with specific rabbit antiserum raised against Mycoplasma hyosynoviae. A commerically available solid medium (Mycoplasma Experience Ltd.) is used to isolate M. hyosynoviae from lung tissue. A liquid medium (Mycoplasma Experience Ltd.) containing phenol red and arginine (pH 7.0) is used for the MIC assay.
Stock solutions of test compound are prepared at 1 mg/ml concentration in deionised water, sterilised by filtration through 0.2μ pore size membrane filters (Sartorius Minisart, N) and stored at -20° C. For use in the MIC tests the stock solutions are diluted in liquid medium to double the final concentrations required. MIC tests are carried out according to the method of Tanner and Wu, Avian Diseases 36 (1992) 714-717. Actively growing challenge cultures are prepared either from 1 ml aliquots of broth cultures stored at -70° C. or from cultures stored on agar at -70° C. The challenge cultures are diluted to give a target titre of 10^3 to 10^5 colour changing units/ml. 0.1 ml aliquots of challenge inocula are mixed with 0.1 ml aliquots of antibiotic dilution in microtitre wells. Each microtitre plate contains uninoculated media at pH 7.6 (end point control) and antibiotic-free inoculated challenge controls. All plates are sealed with adhesive film and incubated aerobically at 36° C. MICs are recorded when the colour change in the challenge control wells matches the pH of the end point control. The MIC is the lowest concentration showing no colour change.

S. hyodysenteriae = assay: Further challenge trial: treatment of swine dysentery; assay type: in vivo, pigs
Description: A group of 60 (3.5 to 4 weeks old) conventionally reared pigs are fed unmedicated food for 14 days then challenged by the oral route with the standard strain of S. hyodysenteriae (P18A). When clinical signs of disease are evident, pigs are allocated to six treatment groups of 8 pigs per group and fed antibiotic containing feed for 10 days, then unmedicated food for a further 14 days. Valnemulin hydrochloride is fed at 50, 75, 100 and 150 ppm and compared with tiamulin hydrogen fumarate fed at 100 ppm and with unmedicated controls. Pigs with a range of clinical signs of disease are included in each treatment group. After allocation to the treatment groups the evidence of clinical disease is assessed daily and a clinical score assigned, rectal swabs are taken twice weekly for isolation of S. hyodysenteriae and all pigs are weighed at regular intervals. Food intake is also recorded. A post-mortem examination is carried out 24 days after challenge and the large intestine of each pig examined for the presence of lesions. Mucosal scrapings are also taken from 4 areas in the large intestine and cultured for S. hyodysenteriae.

Pasteurella multocida = assay: MIC against Pasteurella multocida isolates; assay type: cell-based; conditions: for MIC: Pasteurella multocida, 10 isolates
Procedure: The minimal inhibitory concentration (MIC) of valnemulin hydrochloride against recent isolates of Pasteurelia multocida, Haemophilus pleuropneumoniae and Haemophilus parasuis originating from porcine respiratory material is determined and compared with tiamulin. […] Three of the Pasteurella isolates were toxigenic strains of Pasteurella multocida. For H. pleuropneumoniae and H. parasuis, on the day before testing a single loopful of each of the pure cultures is inoculated into 10 ml of Todd & Hewitt broth (Unipath CM190) containing 1% donor calf serum and 2 mg per ml of nicotinamide adenine dinucleotide (NAD). For P. multocida, […] a single loopful of each of the pure cultures is inoculated into 10 ml of nutrient broth No. 2 (Unipath CM67) containing 1% donor calf serum. Each of the prepared broth cultures are incubated for 18 hours at 37° C. in 10% CO2. […] For each test compound, standard control cultures of Oxford Staphylococcus aureus NCTC 6571 are also set up to validate the results of the MIC tests. In each case, broth cultures set up from the control organisms are identical to those of the organisms under test. Valnemulin is a hydrochloride, tiamulin is used as the hydrogen fumarate. […] Sensitised agar (Oxoid CM409) containing lysed horse blood (Oxoid SR50) is prepared according to the manufacturer's recommendations and adjusted to pH 7.4 it necessary. […] Four replicate plates are prepared from each dilution. […] After inoculation the growth of the organisms is examined initially by eye followed by microscopic examination on a stereo zoom microscope. The MIC value is taken as the lowest concentration of test compound at which no growth can be detected at the point of inoculation on all four plates by microscopic examination.

[1] = tylosin 0.05%, tiamulin, valnemulin all but the lowest dose
[2] = valnemulin 0.0125 and 0.025%, tylosin 0.05%
[3] = tiamulin 100 ppm, treatment period

C=C[C@]1(C)C[C@@H](OC(=O)CSC(C)(C)CNC(=O)[C@H](N)C(C)C)[C@]2(C)[C@H](C)CC[C@]3(CCC(=O)[C@H]32)[C@@H](C)[C@@H]1O [valnemulin hydrochloride, 14-O-[1-[(R)-2-amino-3-methylbutyrylamino]-2-methylpropan-2-ylthioacetyl]mutilin]
weight gain (Mycoplasma gallisepticum; [1]): next but significantly less (p<0.05) | prevention of MG infection vs reference compounds (Mycoplasma gallisepticum; valnemulin 0.0125 and 0.025%): as effective as the reference compounds | prevention of clinical signs and mortality (Mycoplasma gallisepticum; [2]): equally satisfactory | lesions (frequency and severity) (Mycoplasma gallisepticum; valnemulin 0.0125 and 0.025%, tiamulin, tylosin 0.05%): then the two higher doses of valnemulin | effect on lesions (Mycoplasma gallisepticum; valnemulin 2 lower doses (0.00312, 0.00625%)): less effective | birds with MG isolated (Mycoplasma gallisepticum; valnemulin highest dose (0.025%)): only one bird | weight gain (Mycoplasma gallisepticum; valnemulin lowest dose): lowest weight gains | MIC (Mycoplasma hyosynoviae): 0.0001 to 0.0005 µg/mL | sensitivity of isolates in words (Mycoplasma hyosynoviae; seven field isolates): much higher than for the other two compounds | shedding of S. hyodysenteriae in faeces (S. hyodysenteriae; all levels of valnemulin, after withdrawal of medicated feed): prevented by all levels of valnemulin | p of clinical scores, valnemulin vs tiamulin (S. hyodysenteriae; days 3 to 10, all valnemulin groups): < 0.001 | survival (S. hyodysenteriae; valnemulin 50, 75, 100, 150 ppm): All pigs treated with valnemulin survived | recovery from clinical swine dysentery compared to tiamulin (S. hyodysenteriae; valnemulin 50, 75, 100 and 150 ppm): reduction in the number of days that were needed to recover | pigs with clinical signs in post treatment period (S. hyodysenteriae; valnemulin 50 ppm): one pig | pigs with clinical swine dysentery at post-mortem (S. hyodysenteriae; valnemulin 50 ppm): 1 pig | pigs with reddening of the large intestine (S. hyodysenteriae; valnemulin 50 ppm): one other pig | time to clinical signs after withdrawal of medicated feed (S. hyodysenteriae; valnemulin 50 ppm): 4 days | post-mortem lesions of swine dysentery (S. hyodysenteriae; valnemulin 75, 100 or 150 ppm): not seen | pigs with S. hyodysenteriae in mucosal scrapings (S. hyodysenteriae; valnemulin 75 ppm): One pig | efficacy in words (S. hyodysenteriae; valnemulin 100 ppm): highly effective | day by which clinical disease was not seen (S. hyodysenteriae; valnemulin, all levels): ≤ 5 days | mean increase in activity compared with tiamulin (Pasteurella multocida; P. multocida): two and a half fold | MIC (Pasteurella multocida; 18 h, read-out: MIC mean): 3.8 µg/mL | MIC (Pasteurella multocida; read-out: MIC range): 2 to 8 µg/mL

C=C[C@]1(C)C[C@@H](OC(=O)CSCCN(CC)CC)[C@]2(C)[C@H](C)CC[C@]3(CCC(=O)[C@H]32)[C@@H](C)[C@@H]1O [tiamulin hydrogen fumarate]
recovery of MG during life or at necropsy (Mycoplasma gallisepticum; tiamulin highest dose (0.025%), tylosin 0.05%): not recovered | weight gain (Mycoplasma gallisepticum; [1]): next but significantly less (p<0.05) | prevention of clinical signs and mortality (Mycoplasma gallisepticum; [2]): equally satisfactory | MIC (Mycoplasma hyosynoviae): 0.0025 to 0.025 µg/mL | day by which improvement was seen in surviving pigs (S. hyodysenteriae; tiamulin 100 ppm): ≤ 8 days | mean clinical score (S. hyodysenteriae; tiamulin 100 ppm): 30 | mortality in words (S. hyodysenteriae; tiamulin 100 ppm): reduced mortality compared to unmedicated controls but did not prevent some deaths | pigs with swine dysentery in post treatment period (S. hyodysenteriae; tiamulin 100 ppm, last day of trial): one pig | animals that died or required euthanasia (S. hyodysenteriae; [3]): 3 animals | daily live weight gain (DLWG) (S. hyodysenteriae; [3]): 0.1 | feed conversion ratio (FCR) (S. hyodysenteriae; [3]): 6.4 | MIC (Pasteurella multocida; 18 h, read-out: MIC mean): 9.2 µg/mL | MIC (Pasteurella multocida; read-out: MIC range): 4 to 16 µg/mL
